# Test results reported in PubChem BioAssay AID1919017 (Molecular Pharmacology Branch, DTP, NCI, 2023).
# “And” between values parts separate entries of the source, which are not always exact repeats. Equal entries are not always repeated.
# Tested on: SW1271 complex spheroids with HUVEC/MSC, growth, % test/control
# Test: Anticancer human tumor SW1271 cell line growth inhibition [AhR];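 further: spheroids exposed to agents for 7 days before readout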
# Conditions: for viability, T/C: stronger effect = lower value
# From the text: Multicellular complex tumor spheroid response to aryl hydrocarbon receptor antagonists in combination with a variety of drugs and investigational agents in selected tumor cell lines
# The current study was undertaken to assess response to aryl hydrocarbon receptor antagonists in combination with standard-of-care drugs and investigational agents in solid tumor complex spheroid models. Complex spheroids include a stromal component modeled by human endothelial cells (HUVEC) and fibroblasts modeled by human mesenchymal stem cells (MSCs). The concentration ranges selected for each drug and investigational agent were based upon clinically achievable concentrations if the clinical Cmax of the agent was known.
# Compounds. The drugs and investigational agents: BAY 2416964 (NSC825713), GNF351 (NSC835774), CH-223191 (NSC835775), CPI-455 (NSC825282), aza-TdCyd (NSC777586), decitabine (NSC127716), belinostat (NSC758774), entinostat (NSC756642), pevonedistat (NSC761192), tazemetostat (NSC777109), talazoparib (NSC765396), olaparib (NSC753686), selinexor (NSC780203), nedisertib (M3814, NSC802822), bortezomib (NSC756655), venetoclax (NSC766270), doxorubicin (NSC123127), elimusertib (BAY189344, NSC800525), ceralasertib (AZD6738, NSC777638), TAK-243 (NSC785004), alisertib (NSC759677), etoposide (NSC141540), topotecan (NSC609699), eribulin (NSC707389), gemcitabine (NSC613327), carboplatin (NSC241240), cisplatin (NSC119875), and SN-38 (NSC673596) were obtained from the National Cancer Institute (NCI) Developmental Therapeutics Program Chemical Repository (32). The FDA-approved anticancer drug set is available from the Developmental Therapeutics Program at https://dtp.cancer.gov/organization/dscb/obtaining/available plates.htm. […] The stock solutions were prepared in dimethyl sulfoxide (DMSO, Sigma-Aldrich, St. Louis, MO, cat. D2650), except for the platinum compounds which were prepared in saline (Quality Biological, Gaithersburg, MD, cat. 114-055-101), at 800-fold the tested concentration and stored at -70 degrees C prior to their use. All drugs and investigational agents were tested over a range starting from a high concentration at or near the clinical Cmax and decreasing in half-log increments. If the clinical Cmax for an agent had not been determined, the highest concentration tested was 10 microM (Table 1).
# Cell Culture. All cells were maintained in an incubator at 37 degrees C and 5% CO2 with 95% humidity. The PDC lines were cultured according to standard operating procedures established by the NCI PDMR (https://pdmr.cancer.gov). Briefly, all PDCs were thawed and cultured in Matrigel-coated flasks prepared with a working solution of 1X Ham's F-12 nutrient mix, without supplementation (Invitrogen, Waltham, MA, cat. 11765054), 100 U/mL penicillin-streptomycin (Invitrogen, cat. 15140122), and 2.5% Matrigel (Corning Inc., Corning, NY, cat. 354248) for the first three passages. All PDCs were cultured in complete DMEM/F-12 media containing advanced DMEM/F-12 (Invitrogen, cat. 12634028), 4.9% defined fetal bovine serum, heat inactivated (HyClone Laboratories Inc., Logan, UT, cat. SH30070.03HI), 389 ng/mL hydrocortisone (Sigma-Aldrich, cat. H4001), 9.7 ng/mL human EGF recombinant protein (Invitrogen, cat. PHG0313), 23.4 microg/mL adenine (Sigma-Aldrich, cat. A2786), 97.3 U/mL penicillin-streptomycin (Invitrogen, cat. 15140122), 1.9 mM L-glutamine (Invitrogen, cat. 25030081), and 9.7 microM Y-27632 dihydrochloride (Tocris Bioscience, Bristol, United Kingdom, cat. 1254). The PDCs were cultured in complete DMEM/F12 media without 10 microM Y-27632 dihydrochloride for at least two passages prior to the screen. The established cell lines NCI-H1341 and […] were cultured in DMEM/F-12, HEPES (Invitrogen, cat. 11330032), 5% defined fetal bovine serum (HyClone Laboratories Inc., cat. SH30070.03), ITS premix universal culture supplement [insulin (5 microg/mL), transferrin (5 microg/mL), and selenious acid (5 ng/mL)] […]
# [1] = curve of first compound, second compound 0.1 µM
# [2] = curve of first compound, second compound 0.316 µM
# [3] = curve of first compound, second compound 1 µM
# [4] = curve of first compound, second compound 3.16 µM
# [5] = curve of first compound, second compound 10 µM
compound,measurement,setting,value
CC(C)CC(NC(=O)C(Cc1ccccc1)NC(=O)c1cnccn1)B(O)O (configuration not stated) + Cc1cncc(-c2nc(NCCc3c[nH]c4ccccc34)c3ncn(C(C)C)c3n2)c1,IC50,[1],6.11 nM
same,IC50,[2],5.7 nM
same,IC50,[3],6.18 nM
same,IC50,[4],5.61 nM
same,IC50,[5],3.96 nM
same,"viability, T/C","second compound 0.1 µM, first compound 0.000949 µM",122%
same,"viability, T/C","second compound 0.1 µM, first compound 0.003 µM",112%
same,"viability, T/C","second compound 0.1 µM, first compound 0.00949 µM",11.9%
same,"viability, T/C","second compound 0.1 µM, first compound 0.03 µM",0.91%
same,"viability, T/C","second compound 0.1 µM, first compound 0.0949 µM",0.33%
same,"viability, T/C","second compound 0.1 µM, first compound 0.3 µM",0.46%
same,"viability, T/C","second compound 0.316 µM, first compound 0.000949 µM",84.3%
same,"viability, T/C","second compound 0.316 µM, first compound 0.003 µM",113%
same,"viability, T/C","second compound 0.316 µM, first compound 0.00949 µM",11.3%
same,"viability, T/C","second compound 0.316 µM, first compound 0.03 µM",0.73%
same,"viability, T/C","second compound 0.316 µM, first compound 0.0949 µM",0.67%
same,"viability, T/C","second compound 0.316 µM, first compound 0.3 µM",0.41%
same,"viability, T/C","second compound 1 µM, first compound 0.000949 µM",113%
same,"viability, T/C","second compound 1 µM, first compound 0.003 µM",112%
same,"viability, T/C","second compound 1 µM, first compound 0.00949 µM",13.4%
same,"viability, T/C","second compound 1 µM, first compound 0.03 µM",1.13%
same,"viability, T/C","second compound 1 µM, first compound 0.0949 µM",0.75%
same,"viability, T/C","second compound 1 µM, first compound 0.3 µM",0.48%
same,"viability, T/C","second compound 3.16 µM, first compound 0.000949 µM",107%
same,"viability, T/C","second compound 3.16 µM, first compound 0.003 µM",102%
same,"viability, T/C","second compound 3.16 µM, first compound 0.00949 µM",5.96%
same,"viability, T/C","second compound 3.16 µM, first compound 0.03 µM",0.63%
same,"viability, T/C","second compound 3.16 µM, first compound 0.0949 µM",0.88%
same,"viability, T/C","second compound 3.16 µM, first compound 0.3 µM",0.55%
same,"viability, T/C","second compound 10 µM, first compound 0.000949 µM",62.2%
same,"viability, T/C","second compound 10 µM, first compound 0.003 µM",69.2%
same,"viability, T/C","second compound 10 µM, first compound 0.00949 µM",0.81%
same,"viability, T/C","second compound 10 µM, first compound 0.03 µM",0.31%
same,"viability, T/C","second compound 10 µM, first compound 0.0949 µM",0.34%
same,"viability, T/C","second compound 10 µM, first compound 0.3 µM",0.3%
O=C(C=Cc1cccc(S(=O)(=O)Nc2ccccc2)c1)NO,"viability, T/C",compound 0.0316 µM,103% and 83.5% and 85.7%
same,"viability, T/C",compound 0.1 µM,93.6% and 105% and 72.1%
same,"viability, T/C",compound 0.316 µM,84.1% and 62.7% and 54.9%
same,"viability, T/C",compound 1 µM,62.3% and 55.8% and 46.2%
same,"viability, T/C",compound 3.16 µM,31.1% and 22.6% and 23.3%
same,"viability, T/C",compound 10 µM,13.2% and 16.8% and 9.23%
same,IC50,curve of compound,1550 nM and 963 nM and 556 nM
Cn1ncnc1C1c2n[nH]c(=O)c3cc(F)cc(c23)NC1c1ccc(F)cc1 (configuration not stated) + CC(CO)NC(=O)c1cc(-c2ccc(Cl)cc2)nn(-c2cnn(C)c2)c1=O,IC50,[1],> 100 nM
same,IC50,[2],> 100 nM
same,IC50,[3],> 100 nM
same,IC50,[4],> 100 nM
same,IC50,[5],> 100 nM
same,"viability, T/C","second compound 0.1 µM, first compound 0.000316 µM",111%
same,"viability, T/C","second compound 0.1 µM, first compound 0.001 µM",104%
same,"viability, T/C","second compound 0.1 µM, first compound 0.00316 µM",95.8%
same,"viability, T/C","second compound 0.1 µM, first compound 0.01 µM",98%
same,"viability, T/C","second compound 0.1 µM, first compound 0.0316 µM",84%
same,"viability, T/C","second compound 0.1 µM, first compound 0.1 µM",107%
same,"viability, T/C","second compound 0.316 µM, first compound 0.000316 µM",84.1%
same,"viability, T/C","second compound 0.316 µM, first compound 0.001 µM",87.1%
same,"viability, T/C","second compound 0.316 µM, first compound 0.00316 µM",104%
same,"viability, T/C","second compound 0.316 µM, first compound 0.01 µM",89%
same,"viability, T/C","second compound 0.316 µM, first compound 0.0316 µM",85.2%
same,"viability, T/C","second compound 0.316 µM, first compound 0.1 µM",79.2%
same,"viability, T/C","second compound 1 µM, first compound 0.000316 µM",96.2%
same,"viability, T/C","second compound 1 µM, first compound 0.001 µM",101%
same,"viability, T/C","second compound 1 µM, first compound 0.00316 µM",73.7%
same,"viability, T/C","second compound 1 µM, first compound 0.01 µM",81.2%
same,"viability, T/C","second compound 1 µM, first compound 0.0316 µM",74.1%
same,"viability, T/C","second compound 1 µM, first compound 0.1 µM",103%
same,"viability, T/C","second compound 3.16 µM, first compound 0.000316 µM",79.7%
same,"viability, T/C","second compound 3.16 µM, first compound 0.001 µM",73%
same,"viability, T/C","second compound 3.16 µM, first compound 0.00316 µM",71.4%
same,"viability, T/C","second compound 3.16 µM, first compound 0.01 µM",89.1%
same,"viability, T/C","second compound 3.16 µM, first compound 0.0316 µM",84.5%
same,"viability, T/C","second compound 3.16 µM, first compound 0.1 µM",77.2%
same,"viability, T/C","second compound 10 µM, first compound 0.000316 µM",71.8%
same,"viability, T/C","second compound 10 µM, first compound 0.001 µM",74.6%
same,"viability, T/C","second compound 10 µM, first compound 0.00316 µM",61.4%
same,"viability, T/C","second compound 10 µM, first compound 0.01 µM",89.4%
same,"viability, T/C","second compound 10 µM, first compound 0.0316 µM",75.9%
same,"viability, T/C","second compound 10 µM, first compound 0.1 µM",76.1%
